Source: patent US7507555B2, “Probe for detecting and quantifying lipid second messenger and method of detecting and quantifying lipid second messenger using the same” (Japan Science and Technology Agency, priority 2003, dated 2009)

Columns and labels:
[1] = tested on: C1B domain derived from PKC; assay: Response of DAG-fllip-pm and DAG-fllip-em to phorbol ester (PMA); type: cell-based; details: phorbol ester (PMA) added
Description: It has been known that C1B domain derived from PKC is selectively bound to DAG. Therefore, this domain was selected as an LBD and the lipid second messenger detecting- and quantifying-probe (hereinafter, referred to as DAG-Fllip) was prepared. Localization domains to the plasma membrane and endomembranes are linked with DAG-fllip to prepare DAG-fllip-pm and DAG-fllip-em. After that, in order to confirm whether the DAG-fllip-pm and the DAG-fllip-em respond to DAG, the DAG-fllip-pm and the DAG-fllip-em were evaluated by using phorbol ester (PMA), which is a substance having a membrane permeability, and specifically bound to C1B domain.

PIP3 = assay: CFP/YFP emission ratio time course after PDGF stimulation of probe-expressing CHO-PDGFR cells; type: cell-based, Chinese hamster; details: for PIP3 in plasma membranes and endomembranes: stimulation by other peptide ligands instead of PDGF
Description: Ovarian cells of Chinese hamster (CHO) were cultured in Ham's F-12 medium supplemented with 10% fetal calf serum (FCS) at 37° C. in 5% CO2. The resulting CHO-PDGFR cells were plated onto glass-bottomed dishes, each of Fllip-pm, Fllip-pmR284C, Fllip-del and Fllip-em expression vectors were transfected with LipofectAMINE2000 reagent (manufactured by Life Technology) and left for 24 hours at 37° C. in 5% CO2.
After serum starvation with serum-free incubating medium, the medium was replaced with a Hank's balanced salt solution. Then, in accordance with a method already reported by the inventors (such as Non-Patent Documents 12 and 13), the cells were imaged at room temperature on a Carl Zeiss Axiovert 135 microscope with a cooled CCD camera, MicroMAX (Roper Scientific lnc, Tucson, Ariz.), controlled by MetaFluor. (Universal Imaging, West Chester, Pa.). The fluorescence images were obtained through 480±15 nm and 535±12.5 nm filters with a 40× oil immersion objective (Carl Zeiss, Jena, Germany). YFP images were detected by a confocal laser scanning microscope LSM 510 (Carl Zeiss).
Response of Fllip-pm to PIP3 produced by physiological stimulation was examined.
Fllip-pm was expressed in CHO-PDGFR cells stably expressing platelet-derived growth factor receptor (PDGFR). PDGF treatment promotes dimerization of PDGFR that results in phosphorylation of multiple tyrosine residues of PDGFR and its activation. PI3K is recruited to these tyrosine phosphorylation sites through its Src-homology 2 (SH2) domain, resulting in its activation (Schlessinger, J. (2000), Cell, 103, 211-225).
The time course of CFP/YFP-emission ratio when PDGF (50 ng/mL) was added to a cell expressing Fllip-pm at plasma membrane are shown in FIG. 6 and FIG. 7.
According to the same method as in Examples 4 and 5, response of Fllip-pmR284C, of which PHD was mutated not to bind to PIP3, was examined.
Fllip-em was expressed in the CHO-PDGFR cells by the same method as in Example 2. After that, the cells were stimulated with PDGF by the same method as in Example 5 and the time course of CFP/YFP emission ratio was measured.

[2] = PDGF 50 ng/mL, Fllip-pm at plasma membrane of CHO-PDGFR cells

## CCCCCCCCCCCCCC(=O)O[C@@H]1[C@@H](C)[C@@]2(O)[C@@H](C=C(CO)C[C@]3(O)C(=O)C(C)=C[C@@H]23)[C@@H]2C(C)(C)[C@]12OC(C)=O [phorbol ester]
[1]
  fluorescence intensity ratio (CFP/YFP) of DAG-fllip-em: decreased
  fluorescence intensity ratio (CFP/YFP) of DAG-fllip-pm: decreased

## insulin: other peptide ligand
PIP3
  PIP3 in plasma membranes and endomembranes: induced the PIP3 increase

## PDGF
PIP3; [2]
  CFP/YFP emission ratio: decreased immediately
  time for CFP/YFP emission ratio to reach a plateau: 300 s
PIP3; upon PDGF stimulation
  extent of PIP3 increase in the endomembranes relative to that in the plasma membrane: twice to three times

## epidermal growth factors: other peptide ligand
PIP3
  PIP3 in plasma membranes and endomembranes: induced the PIP3 increase
